Results reported in patent US20060052365A1, “Protease inhibitors” (priority 2002, published 2006).

`O=C(N[C@@H](CC1CCCC1)C(=O)NC1CCCN(C(=O)OCc2ccccc2)CC1=O)c1ccco1` (stereo partly drawn) [Example 61, 4-{(S)-3-Cyclopentyl-2-[(1-furan-2-yl-methanoyl)-amino]-propanoylamino}-3-oxo-azepane-1-carboxylic acid benzyl ester] showed a melting point of 72 to 74 °C.
Molecule `O=C(N[C@@H](CC1CCCC1)C(=O)NC1CCCN(C(=O)OCc2ccccc2)CC1=O)c1ccco1` (stereo partly drawn) [Example 62, 4-{(S)-3-Cyclopentyl-2-[(1-furan-2-yl-methanoyl)-amino]-propanoylamino)-3-oxo-azepane-1-carboxylic acid benzyl ester] has a melting point of 66 to 68 °C.
Work on `O=C(N[C@@H](CC1CCCC1)C(=O)NC1CCCN(S(=O)(=O)c2ccccn2)CC1=O)c1ccco1` (stereo partly drawn) [Example 63, Furan-2-carboxylic acid {(S)-2-cyclopentyl-1-[3-oxo-1-(pyridine-2-sulfonyl)-azepan-4-ylcarbamoyl]ethyl}-amide] yielded a melting point of 81 to 84 °C.
Molecule `O=C(N[C@@H](CC1CCCC1)C(=O)NC1CCCN(S(=O)(=O)c2ccccn2)CC1=O)c1ccco1` (stereo partly drawn) [Example 64, Furan-2-carboxylic acid {(S)-2-cyclopentyl-1-[3-oxo-1-(pyridine-2-sulfonyl)-azepan-4-ylcarbamoyl]ethyl}-amide] has a melting point of 77 to 80 °C.
Work on `CS(=O)(=O)N1CCCC(NC(=O)[C@H](CC2CCCC2)NC(=O)c2ccco2)C(=O)C1` (stereo partly drawn) [Example 65, Furan-2-carboxylic acid [(S)-2-cyclopentyl-1-(1-methanesulfonyl-3-oxo-azepan-4ylcarbamoyl)-ethyl]-amide] yielded a melting point of 167 to 170 °C.
With `CS(=O)(=O)N1CCCC(NC(=O)[C@H](CC2CCCC2)NC(=O)c2ccco2)C(=O)C1` (stereo partly drawn) [Example 66, Furan-2-carboxylic acid [(S)-2-cyclopentyl-1-(1-methanesulfonyl-3-oxo-azepan-4-ylcarbamoyl)-ethyl]-amide] the melting point was 158 to 161 °C.
Work on `O=C(N[C@@H](CC1CCCC1)C(=O)NC1CCCN(S(=O)(=O)c2ccccc2)CC1=O)c1ccco1` (stereo partly drawn) [Example 67, Furan-2-carboxylic acid [(S)-1-(1-benzenesulfonyl-3-oxo-azepan-4 ylcarbamoyl)-2-cyclopentyl-ethyl]-amide] yielded a melting point of 88 to 90 °C.
In the case of `O=C(N[C@@H](CC1CCCC1)C(=O)NC1CCCN(S(=O)(=O)c2ccccc2)CC1=O)c1ccco1` (stereo partly drawn) [Example 68, Furan-2-carboxylic acid [(S)-1-(1-benzenesulfonyl-3-oxo-azepan-4-ylcarbamoyl)-2-cyclopentyl-ethyl]-amide], the melting point is reported as 166 to 167 °C.
In the case of `O=C(N[C@@H](CC1CCCC1)C(=O)NC1CCCN(C(=O)c2ccco2)CC1=O)c1ccco1` (stereo partly drawn) [Example 69, Furan-2-carboxylic acid {(S)-2-cyclopentyl-1-[1-(1-furan-2-yl-methanoyl)-3-oxo-azepan-4-ylcarbamoyl]-ethyl}-amide], the melting point is reported as 88 to 89 °C.
Molecule `O=C(N[C@@H](CC1CCCC1)C(=O)NC1CCCN(C(=O)c2ccco2)CC1=O)c1ccco1` (stereo partly drawn) [Example 70, Furan-2-carboxylic acid {(S)-2-cyclopentyl-1-[1-(1-furan-2-yl-methanoyl)-3-oxo-azepan-4-ylcarbamoyl]-ethyl}-amide] has a melting point of 85 to 88 °C.
With `O=C(N[C@@H](CC1CCCC1)C(=O)NC1CCCN(C(=O)c2ccccc2)CC1=O)c1ccco1` (stereo partly drawn) [Example 71, Furan-2-carboxylic acid {(S)-2-cyclopentyl-1-[3-oxo-1-(1-phenyl-methanoyl)-azepan-4-ylcarbamoyl]-ethyl}-amide] the melting point was 101 to 103 °C.
In the case of `O=C(N[C@@H](CC1CCCC1)C(=O)NC1CCCN(C(=O)c2ccccc2)CC1=O)c1ccco1` (stereo partly drawn) [Example 72, Furan-2-carboxylic acid {(S)-2-cyclopentyl-1-[3-oxo-1-(1-phenyl-methanoyl)-azepan-4-ylcarbamoyl]-ethyl}-amide], the melting point is reported as 97 to 100 °C.
